Data on 4 compounds can be found in patent publication US10087171B2, “Crystalline forms of cadazolid” (ACTELION PHARMACEUTICALS LTD, priority 2016, dated 2018).

Type in all cases: physicochemical
The nature of series [1]: Suspension equilibration experiments. The protocol: 27 mg of cadazolid in form A and 25 mg of cadazolid in form C (obtainable as described in Example 3) are suspended in 1 mL H2O, treated for 5 min in an ultrasound bath and agitated at 25° C. The solid is filtered off after 5 days and analyzed. The obtained material is cadazolid in form B.
The following suspension equilibration experiments are performed in organic solvent (mixture of methanol and dichloromethane) and in water:
26 mg of cadazolid in form A and 25 mg of cadazolid in form C are suspended in 1 mL MeOH/CH2Cl21:3 and agitated at 25° C. The solid is filtered off after 5 days and is cadazolid in form A.
27 mg of cadazolid in form A and 26 mg of cadazolid in form C are suspended in 1 mL MeOH/CH2Cl2 1:3 and agitated at 5° C. for 2 days. Some solid is isolated by drying on a filter paper and consists of cadazolid in form A.
29 mg of cadazolid in form A and 26 mg of cadazolid in form C are suspended in 1 mL H2O, treated for 5 min in an ultrasound bath and agitated at 5° C. for 2 days. Some solid is isolated by drying on filter paper and consists of cadazolid in form B.

Series [2] can be described thus: Gravimetric water vapor sorption analysis GVS1 at 25° C. As to conditions: for hysteresis in GVS: 0% to 95% r.h. On the procedure:
GVS1: Projekt Messtechnik SPS 11-100n water vapor sorption analyzer. The samples are placed in aluminum crucibles on top of a microbalance. They are equilibrated at 25° C. and 50% r.h. and are then subjected to a pre-defined humidity program at 25° C. in the order 50-0-95-50% r.h. A scanning rate of r.h.=5%/h is used and ‘isohumid’ equilibration periods are included at the extreme values.

A short description of series [3]: Gravimetric water vapor sorption analysis GVS2 at 25° C. The source says:
GVS2: Surface Measurement Systems Ltd. DVS-1 water vapor sorption analyzer. The sample is placed in a Pt pan suspended on a micro balance and is exposed to a N2 flow with 95% r.h. at the beginning and then decreasing with a constant rate of 5%/h.

Series [4] can be described thus: Relative thermodynamic stability deduced from melting points and melting enthalpies. As to conditions: at room temperature. On the procedure: DSC data are collected on a Perkin Elmer DSC 7. The instrument is calibrated for energy and temperature using certified indium. Samples are sealed in hermetically closed gold crucibles under N2, heating rates of 10° C./min or 100° C./min, scan from −50° C. to variable end temperatures. Peak temperatures are reported for melting points.
The relative thermodynamic stability of polymorphic forms can be deduced from their melting points and melting enthalpies (L. Yu, Journal of Pharmaceutical Sciences 84 (1995) 966-974). These values are summarized in the Table 6 below for form A and C of cadazolid: […]

The mark [5] stands for this setting: MeOH/CH2Cl2 1:3, 25° C., 5 days.

Take `O=C(O)c1cn(C2CC2)c2cc(N3CCC(O)(COc4ccc(N5C[C@H](CO)OC5=O)cc4F)CC3)c(F)cc2c1=O` [crystalline form C, 1-cyclopropyl-6-fluoro-7-{4-[2-fluoro-4-((R)-5-hydroxymethyl-2-oxo-oxazolidin-3-yl)-phenoxymethyl]-4-hydroxy-piperidin-1-yl}-4-oxo-1,4-dihydro-quinoline-3-carboxylic acid]: the “solid form obtained after suspension equilibration of form A and form C together” value (shortened to “solid form obtained”) in series [1] (H2O, 5° C., 2 days) is recorded as “form B”; in series [1] (H2O, 25° C., 5 days), “form B”; in series [1] (MeOH/CH2Cl2 1:3, 5° C., 2 days), “form A”; in series [1] (setting [5]), “form A”. In addition, the “water content of the solid at 40% r.h.” value in series [2] is recorded as 0.33%. In addition, the “water content of the solid at 95% r.h.” value in series [2] turned out to be 2.52%.

With `O=C(O)c1cn(C2CC2)c2cc(N3CCC(O)(COc4ccc(N5C[C@H](CO)OC5=O)cc4F)CC3)c(F)cc2c1=O` [crystalline form B, 1-cyclopropyl-6-fluoro-7-{4-[2-fluoro-4-((R)-5-hydroxymethyl-2-oxo-oxazolidin-3-yl)-phenoxymethyl]-4-hydroxy-piperidin-1-yl}-4-oxo-1,4-dihydro-quinoline-3-carboxylic acid], in series [3], the “continuous weight loss during 6 h equilibration at 95% r.h.” value is given as 30% during 6 h equilibration at 95% r.h. is. Moreover, the “r.h. at which the water content of form A is reached” value in series [3] (decreasing r.h.) is recorded as “the r.h. at a rate of 5%/h. At 80% r.h., the water”. Moreover, the “additional, accelerated weight loss upon lowering the r.h.” value in series [3] (r.h. lowered at a rate of 5%/h) is “loss of approx. 15% is observed upon lowering”.

As for `O=C(O)c1cn(C2CC2)c2cc(N3CCC(O)(COc4ccc(N5C[C@H](CO)OC5=O)cc4F)CC3)c(F)cc2c1=O` [amorphous state, 1-cyclopropyl-6-fluoro-7-{4-[2-fluoro-4-((R)-5-hydroxymethyl-2-oxo-oxazolidin-3-yl)-phenoxymethyl]-4-hydroxy-piperidin-1-yl}-4-oxo-1,4-dihydro-quinoline-3-carboxylic acid], in series [2], the “solid form after GVS (post GVS XRPD)” value is “amorphous as tested by a post GVS”; the “weight increase between 0% and 95% r.h.” value is “A weight increase of about 7% (circa”; the “weight increase between 0% and 95% r.h. as equivalents H2O” value was 2.3 equivalents H2O) between 0% and; the “hysteresis in GVS” value is reported as 95% r.h. with a significant hysteresis. In series [2], the “water content of the solid at 40% r.h.” value came out at 1.8% and the “water content of the solid at 95% r.h.” value worked out at 7.17%. The hygroscopicity classification result in series [2] (40% to 95% r.h., adapted methodology, classification according to Pharm. Eur 8.0, section 5.11) is reported as “considered as being hygroscopic (adapted”.

Regarding `O=C(O)c1cn(C2CC2)c2cc(N3CCC(O)(COc4ccc(N5C[C@H](CO)OC5=O)cc4F)CC3)c(F)cc2c1=O` [crystalline form A, 1-cyclopropyl-6-fluoro-7-{4-[2-fluoro-4-((R)-5-hydroxymethyl-2-oxo-oxazolidin-3-yl)-phenoxymethyl]-4-hydroxy-piperidin-1-yl}-4-oxo-1,4-dihydro-quinoline-3-carboxylic acid], the “solid form obtained” value in series [1] (H2O, 5° C., 2 days) is recorded as “form B”. For the same compound, the “solid form obtained” value in series [1] (H2O, 25° C., 5 days) is reported as “form B”. Also, in series [1] (MeOH/CH2Cl2 1:3, 5° C., 2 days), the “solid form obtained” value is given as “form A”. Also, the “solid form obtained” value in series [1] (setting [5]) was “form A”. Also, the “relative thermodynamic stability concluded from suspension equilibration and GVS2 data” value in series [1] (at 25° C., both at low and high relative humidity) is reported as “thermodynamically more stable than form C”. In addition, the “relative thermodynamic stability of polymorphic forms A and C” value in series [4] was “more thermodynamically stable form”. In addition, in series [2], the “maximum difference in water content between 0% and 95% r.h.” value is about 0.5 mol/mol; the “hysteresis in GVS” value is “No hysteresis”; the “water content of the solid at 40% r.h.” value is recorded as 0.81%; the “water content of the solid at 95% r.h.” value came to 1.81%.
